Laboratory results as given in patent US20240239786A1, “COMPOSITIONS AND METHODS FOR THE TREATMENT AND PREVENTION OF CANCER” (Yale University, priority 2021, published 2024).

Columns and labels:
[1] = molecular target: T1, ribonucleotide reductase (RNR) (Homo sapiens, UniProt P31350); details: fold more potent than hydroxyurea; cited from earlier work
T1 sequence (P31350 1-389): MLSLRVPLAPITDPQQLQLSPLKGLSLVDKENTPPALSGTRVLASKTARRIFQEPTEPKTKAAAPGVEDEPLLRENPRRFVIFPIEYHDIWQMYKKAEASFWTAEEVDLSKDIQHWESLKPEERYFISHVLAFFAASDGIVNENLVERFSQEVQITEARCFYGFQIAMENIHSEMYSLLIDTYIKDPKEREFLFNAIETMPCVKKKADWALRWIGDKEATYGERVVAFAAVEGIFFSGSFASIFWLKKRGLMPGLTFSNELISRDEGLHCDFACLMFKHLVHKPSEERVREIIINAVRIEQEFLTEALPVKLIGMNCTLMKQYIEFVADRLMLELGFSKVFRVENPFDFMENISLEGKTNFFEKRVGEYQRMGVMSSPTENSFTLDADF

[2] = cited from earlier work
cNHEJ activity = experiment: NHEJ reporter assay in SKOV3-EJ5-GFP cells; assay type: cell-based; details: I-SceI-mediated DSBs
Description: Cells were transfected with the ISceI-expressing plasmid and then treated various concentrations of DB4 for 48 hr. Cells were harvested, stained with 7-AAD, and analyzed by flow cytometry for GFP-positive cells indicative of HR repair activity. […] Cells were transfected with the ISceI-expressing plasmid and treated with various concentrations of DB4. Cells were harvested, stained with 7-AAD, and stained, and analyzed by flow cytometry for GFP-positive cells indicative of NHEJ activity. Data are means±SD (N=3). *, p<0.05; **, p<0.01, compared with the 0 μM control of ISceI-transected cells. FIG. 7C depicts representative results of confocal imaging of olaparib-induced nuclear Rad51 foci in SKOV3 cells treated DB4. […] Cells were also scored for nuclei containing equal or more than 10 distinct Rad51 foci to determine the percentage of cells positive for Rad51 foci. […] Protein was assessed by western blot analysis for the levels of γH2AX, p-H1, cyclin A2, p-CDK1/2, and HSC70. […] The band density of γH2AX indicative of DSBs was quantified by densitometry. […]
SKOV3-DR-GFP cells were established as described previously (Lin Z P et al., 2014, Molecular Cancer Res, 12:381-393). […] Cells were then trypsinized, stained with 7-AAD, and analyzed for the percentage of GFP-positive and […] cells by flow cytometry using an LSR II flow cytometer (BD Biosciences) and FlowJo software (Tree Star; Ashland, OR). […]

SKOV3 cells = experiment: Clonogenic assay, SKOV3; assay type: cell-based; details: DB4 at 6 μM, 14 days
Experimental: Cells were plated for 24 hr, pre-treated with DB4 for 1 hr, and then treated with various concentrations of olaparib for 14 days. Colonies were stained and determined for clonogenic survival.
To further substantiate the effectiveness of DB4 and mitigate the issue of off-target effects with a higher concentration range of drugs used in the MTS cytotoxicity assay, clonogenic assays were carried out to determine the long-term survival of cells in response to treatments.
The assay was conducted as described previously (Lin Z P et al., 2014, Molecular Cancer Res, 12:381-393). Cells were plated at various densities in 6-well plates in triplicate. After 24 hr of incubation, cells were treated continuously with various concentrations of olaparib, DB4, or both drugs in combination. After 12-14 days, colonies were fixed/stained with crystal violet solution and counted to determine the percentage of survival using a GelDoc imaging system with QuantityOne software (Bio-Rad, Hercules, CA).

PEO1-OR cells = experiment: MTS cytotoxicity assay, sensitization to olaparib, PEO1-OR; assay type: cell-based

Row | SMILES | potency relative to the RNR inhibitor hydroxyurea [1] | half-life in plasma [2] | cNHEJ activity (cNHEJ activity) | clonogenic survival in the presence of olaparib (SKOV3 cells) | sensitization to olaparib (cell survival) (PEO1-OR cells; DB4 at 5 μM) | sensitization to olaparib (cell survival) (PEO1-OR cells; DB4 at 20 μM)
1 | NC(=S)NN=Cc1ncccc1N [triapine, 3-aminopyridine-2-carboxaldehyde-thiosemicarbazone, reference compound] | 1,000 times | about 2 hr |  |  |  | 
2 | C=CCn1c(SCc2cccc(Cl)c2)nnc1C1CCN(Cc2nc3ccccc3s2)CC1 [DB4, 2-[(4-{4-allyl-5-[(3-chlorobenzyl)thio]-4H-1,2,4-triazol-3-yl}-1-piperidinyl)methyl]-1,3-benzothiazole] |  |  | appeared to enhance the cNHEJ activity induced by I-SceI-mediated DSBs but the increase was not statistically significant | effectively reduced the clonogenic survival | partially sensitized | near-fully sensitized
